Measurements from US7645751B2, “Mandelic acid derivatives and their use as thrombin inhibitors” (AstraZeneca, priority 2000, dated 2010).
Counter-ions that a name gives are not always drawn.

Experiments:
[1] = Test G: determination of in vitro stability in liver microsomes (rat); assay type: in vitro ADME; conditions: 37° C., up to 60 min, NADH/NADPH
Description: (§1) Liver microsomes are prepared from Sprague-Dawley rats and human liver samples according to internal SOPs. The compounds are incubated at 37° C. at a total microsome protein concentration of 3 mg/mL in a 0.05 mol/L TRIS buffer at pH 7.4, in the presence of the cofactors NADH (2.5 mmol/L) and NADPH (0.8 mmol/L). The initial concentration of compound is 5 or 10 μmol/L. Samples are taken for analysis up to 60 minutes after the start of the incubation. The enzymatic activity in the collected sample is immediately stopped by adding 20% […] at a volume corresponding to 3.3% of the total sample volume. The concentration of compound remaining (FINAL CONC) in the 60 min. sample is determined by means of LCMS using a sample collected at zero time as reference (START CONC). The % of degraded thrombin inhibitor is calculated as: […]

[2] = Test G: determination of in vitro stability in liver microsomes (human); assay type: in vitro ADME; conditions: 37° C., up to 60 min, NADH/NADPH
Description: as §1

Row | Compound | conversion to the corresponding active inhibitor (free amidine) in liver microsomes from rats [1] | conversion to the corresponding active inhibitor (free amidine) in liver microsomes from humans [2] | melting point
1 | CON=C(N)c1ccc(CNC(=O)[C@@H]2CCN2C(=O)[C@H](O)c2cc(Cl)cc(OCCF)c2)cc1 [Example 22, Ph(3-Cl)(5-OCH2CH2F)—(R)CH(OH)C(O)-Aze-Pab(OMe)] | converted to the corresponding active inhibitor (free amidine) | converted to the corresponding active inhibitor (free amidine) | 
2 | CO/N=C(\N)c1cc(F)c(CNC(=O)[C@@H]2CCN2C(=O)[C@H](O)c2cc(Cl)cc(OC(F)F)c2)c(F)c1 [Example 40, Ph(3-Cl)(5-OCHF2)—(R)CH(OH)C(O)-Aze-Pab(2,6-diF)(OMe)] | converted to the corresponding active inhibitor (free amidine) | converted to the corresponding active inhibitor (free amidine) | 
3 | CON=C(N)c1ccc(CNC(=O)[C@@H]2CCN2C(=O)[C@H](O)c2cc(Cl)cc(OCC(F)(F)F)c2)cc1 [Example 16, Ph(3-Cl)(5-OCH2CF3)—(R)CH(OH)C(O)-Aze-Pab(OMe)] | converted to the corresponding active inhibitor (free amidine) | converted to the corresponding active inhibitor (free amidine) | 
4 | CON=C(N)c1ccc(CNC(=O)[C@@H]2CCCN2C(=O)[C@H](O)c2cc(Cl)cc(OC(F)F)c2)cc1 [Example 33, Ph(3-Cl)(5-OCHF2)—(R)CH(OH)—C(O)-Pro-Pab(OMe)] | converted to the corresponding active inhibitor (free amidine) | converted to the corresponding active inhibitor (free amidine) | 
5 | CON=C(N)c1ccc(CNC(=O)[C@@H]2CCN2C(=O)[C@H](O)c2cc(Cl)cc(OCF)c2)cc1 [Example 20, Ph(3-Cl)(5-OCH2F)—(R)CH(OH)C(O)-Aze-Pab(OMe)] | converted to the corresponding active inhibitor (free amidine) | converted to the corresponding active inhibitor (free amidine) | 
6 | Ph(3-Br)(5-OCHF2)—(R)CH(OH)C(O)-Aze-Pab(OMe) [Example 29] | converted to the corresponding active inhibitor (free amidine) | converted to the corresponding active inhibitor (free amidine) | 
7 | N=C(N)c1cnc(CNC(=O)[C@@H]2CCN2C(=O)[C@H](O)c2cc(Cl)cc(OC(F)F)c2)nc1 (as salt: TFA) [Example 36, Ph(3-Cl)(5-OCHF2)—(R)CH(OH)C(O)-Aze-NH—CH2-((5-amidino)-2-pyrimidinyl)] |  |  | 86 to 87 °C
8 | CO/N=C(\N)c1cnc(CNC(=O)[C@@H]2CCN2C(=O)[C@H](O)c2cc(Cl)cc(OC(F)F)c2)nc1 [Example 37, Ph(3-Cl)(5-OCHF2)—(R)CH(OH)C(O)-Aze-NH—CH2-((5-methoxyamidino)-2-pyrimidinyl)] | converted to the corresponding active inhibitor (free amidine) | converted to the corresponding active inhibitor (free amidine) | 
9 | CON=C(N)c1ccc(CNC(=O)[C@@H]2CCN2C(=O)[C@H](O)c2cc(Cl)cc(OCC(F)F)c2)cc1 [Example 18, Ph(3-Cl)(5-OCH2CHF2)—(R)CH(OH)C(O)-Aze-Pab(OMe)] | converted to the corresponding active inhibitor (free amidine) | converted to the corresponding active inhibitor (free amidine) | 
10 | CON=C(N)c1ccc(CNC(=O)[C@@H]2CCN2C(=O)[C@H](O)c2cc(F)cc(OC(F)F)c2)cc1 [Example 26, Ph(3-F)(5-OCHF2)—(R)CH(OH)C(O)-Aze-Pab(OMe)] | converted to the corresponding active inhibitor (free amidine) | converted to the corresponding active inhibitor (free amidine) | 
11 | CCON=C(N)c1ccc(CNC(=O)[C@@H]2CCN2C(=O)[C@H](O)c2cc(Cl)cc(OC(F)F)c2)cc1 [Example 43, Ph(3-Cl)(5-OCHF2)—(R)CH(OH)C(O)-Aze-Pab(OEt)] | converted to the corresponding active inhibitor (free amidine) | converted to the corresponding active inhibitor (free amidine) | 
12 | NC(=NO)c1ccc(CNC(=O)[C@@H]2CCN2C(=O)[C@H](O)c2cc(Cl)cc(OC(F)F)c2)cc1 [Example 2, Ph(3-Cl)(5-OCHF2)—(R)CH(OH)C(O)-Aze-Pab(OH)] | converted to the corresponding active inhibitor (free amidine) | converted to the corresponding active inhibitor (free amidine) | 
13 | CON=C(N)c1ccc(CNC(=O)[C@@H]2CCN2C(=O)[C@H](CO)c2cc(Cl)cc(OC(F)(F)F)c2)cc1 [Example 11, Ph(3-Cl)(5-OCF3)—(S)CH(CH2OH)C(O)-Aze-Pab(OMe)] | converted to the corresponding active inhibitor (free amidine) | converted to the corresponding active inhibitor (free amidine) | 
14 | CON=C(N)c1ccc(CNC(=O)[C@@H]2CCN2C(=O)[C@H](O)c2cc(Cl)cc(OC(F)(F)F)c2)cc1 [Example 7, Ph(3-Cl)(5-OCF3)—(R)CH(OH)C(O)-Aze-Pab(OMe)] | converted to the corresponding active inhibitor (free amidine) | converted to the corresponding active inhibitor (free amidine) | 
15 | CON=C(N)c1ccc(CNC(=O)[C@@H]2CCN2C(=O)[C@H](O)c2cc(Cl)cc(OC(F)F)c2)cc1 [Example 12, Ph(3-Cl)(5-OCHF2)—(R)CH(OH)C(O)-Aze-Pab(OMe)] | converted to the corresponding active inhibitor (free amidine) | converted to the corresponding active inhibitor (free amidine) | 
16 | Ph(3-Cl)(5-OCHF2)—(R)CH(OH)C(O)-Aze-Pab(OcBu) [Example 1] | converted to the corresponding active inhibitor (free amidine) | converted to the corresponding active inhibitor (free amidine) | 
17 | CC(C)ON=C(N)c1ccc(CNC(=O)[C@@H]2CCN2C(=O)[C@H](O)c2cc(Cl)cc(OC(F)F)c2)cc1 [Example 45, Ph(3-Cl)(5-OCHF2)—(R)CH(OH)C(O)-Aze-Pab(OiPr)] | converted to the corresponding active inhibitor (free amidine) | converted to the corresponding active inhibitor (free amidine) | 
18 | CON=C(N)c1ccc(CNC(=O)[C@@H]2CCN2C(=O)[C@H](O)c2cc(Cl)cc(OC(CF)CF)c2)cc1 [Example 24, Ph(3-Cl)(5-OCH(CH2F)2)—(R)CH(OH)C(O)-Aze-Pab(OMe)] | converted to the corresponding active inhibitor (free amidine) | converted to the corresponding active inhibitor (free amidine) | 
